According to the NIST ThermoML archive (doi:10.1021/je0400052):

Key:
[1] = xn = mol fraction of the nth substance listed; conditions: 101.3 kPa, Liquid
[2] = refractive index (Na D-line) (dimensionless); xn = mol fraction of the nth substance listed; conditions: 101.3 kPa, Liquid

CCOC=O [ethyl methanoate] + CCc1ccccc1
Conditions	mass density, [1] [kg/m3]	refractive index, [2]	viscosity, [1] [mPa·s]
303.15 K, x1 = 0.1478	862.2	1.4809	0.558
303.15 K, x1 = 0.2728	869.9	1.4691	0.527
303.15 K, x1 = 0.3884	871.2	1.4568	0.499
303.15 K, x1 = 0.4978	876.3	1.4431	0.473
303.15 K, x1 = 0.6	881.8	1.4286	0.45
303.15 K, x1 = 0.6925	886.6	1.4157	0.43
303.15 K, x1 = 0.7768	891	1.4058	0.413
303.15 K, x1 = 0.851	896.6	1.3938	0.397
303.15 K, x1 = 0.9309	903.7	1.3709	0.38
313.15 K, x1 = 0.1478	853.7	1.4791	0.502
313.15 K, x1 = 0.2728	857.7	1.4682	0.476
313.15 K, x1 = 0.3884	861.8	1.4532	0.452
313.15 K, x1 = 0.4978	866.3	1.4415	0.42
313.15 K, x1 = 0.6	873.2	1.4269	0.409
313.15 K, x1 = 0.6925	875.9	1.4142	0.391
313.15 K, x1 = 0.7768	880	1.4042	0.376
313.15 K, x1 = 0.851	885.1	1.3921	0.363
313.15 K, x1 = 0.9309	891.7	1.3695	0.351

CCOC=O [ethyl methanoate] + Cc1ccc(C)cc1
Conditions	mass density, [1] [kg/m3]	refractive index, [2]	viscosity, [1] [mPa·s]
303.15 K, x1 = 0.1658	857.7	1.4785	0.523
303.15 K, x1 = 0.2572	861.1	1.4746	0.503
303.15 K, x1 = 0.4068	868.2	1.4671	0.472
303.15 K, x1 = 0.5039	871.6	1.4532	0.452
303.15 K, x1 = 0.6037	878.8	1.451	0.434
303.15 K, x1 = 0.6916	883.4	1.4239	0.418
303.15 K, x1 = 0.7854	889.6	1.4121	0.403
303.15 K, x1 = 0.8588	896	1.3901	0.39
303.15 K, x1 = 0.9381	902.9	1.3711	0.375
313.15 K, x1 = 0.1658	849	1.4779	0.477
313.15 K, x1 = 0.2572	851.7	1.4732	0.451
313.15 K, x1 = 0.4068	858.8	1.4611	0.424
313.15 K, x1 = 0.5039	861.8	1.4499	0.407
313.15 K, x1 = 0.6037	868.8	1.4491	0.393
313.15 K, x1 = 0.6916	873.5	1.4201	0.38
313.15 K, x1 = 0.7854	877.8	1.4091	0.371
313.15 K, x1 = 0.8588	884.7	1.3891	0.36
313.15 K, x1 = 0.9381	891	1.3689	0.348
